# Results from the NIST ThermoML archive (doi:10.1016/j.jct.2016.05.005).
# ± gives the expanded uncertainty stated by the source.
# Experiments:
# [1] = Molar enthalpy of transition or fusion; details: Crystal; DSC
# [2] = Crystal; DTA
smiles,measurement,setting,value
COC(=O)N(OC)c1ccccc1COc1ccn(-c2ccc(Cl)cc2)n1 [Pyraclostrobin],Molar enthalpy of transition or fusion,[1],31 ± 1.3 kJ/mol
same,Normal melting temperature,[2],60.6 ± 0.6 °C
